# Data taken from patent US9388175B2, “2-aniline-4-aryl substituted thiazole derivatives” (Janssen Pharmaceutica N.V., priority 2005, dated 2016).
# Target: T1, hα7-wt nAChR stably expressed in the GH4C1 cell line (Homo sapiens, UniProt P36544)
# T1 construct: expressed in transfected cells
# Assay: Ca2+ flux imaging (FLIPR) of PAM activity with choline as agonist
# Assay type: cell-based
# Details: efficacy relative to 100 μM choline alone (defined as 1); peak fluorescence, fluo-4AM; compounds tested 0.1 μM to 30 μM, efficacy criterion at 10 μM
# Excerpt: Stable expression in mammalian cells in general and rat GH4C1 cells in particular, of cDNA clones encoding the human α7 wild-type sequence (hα7-wt nAChR) and in which the coding region is placed downstream of a promoter results in the appearance of functional α7 nAChRs on the surface of the mammalian cells. This technique has provided a powerful means of assessing the function of α7 wild-type protein. Given the fact that the cation permeability of the α7 nicotinic receptor preferentially favours calcium, fluorescent imaging of Ca^2+ flux through the hα7-wt nAChR stably expressed in the GH4C1 cell line was used as a first means of assaying modulator activity of the compounds of the present invention.
# a) Assay Buffer • Hanks buffered saline solution (HBSS, Invitrogen, Belgium), supplemented with 10 mM HEPES (Invitrogen, Belgium), CaCl2 to a final concentration of 5 mM, 0.1% Bovine serum albumin (Sigma-Aldrich NV, Belgium), 2.5 mM probenecid (Sigma-Aldrich NV, Belgium).
# b) Calcium-Sensitive Dye—Fluo-4AM • Fluo-4AM (Molecular Probes, USA) was dissolved in DMSO containing 10% Pluronic acid (Molecular Probes, USA) to give a stock solution which was aliquoted and could be stored at −20° C. until later use. On the day of the experiment Fluo-4AM stock was defrosted and diluted in DMEM/F12 (Invitrogen, Belgium) containing 2.5 mM probenicid and 0.1% BSA to give a final concentration of 2 μM.
# c) 96-well Plates • BD Biocoat poly-D-lysine 96-well black/clear bottom plates (BD Biosciences, Belgium)
# d) Calcium Flux Measurement • A Fluorimetric Imaging Plate Reader (FLIPR, Molecular Devices Corporation, Sunnyvale, USA) was used to measure intracellular free-calcium flux signals
# Monolayers of hα7-wt nAChR-expressing cells were grown in multi-well plates, in particular black-sided, transparent bottomed 96 well plates coated with poly-D-lysine for 24 hours prior to loading with a fluorescent calcium indicator, in a particular embodiment loading with fluo-3 or fluo-4AM for up to 90 minutes, in an even more particular embodiment loading with fluo-4AM for up to 90 minutes, and in a preferred embodiment loading with fluo-4AM for 60 minutes.
# In a particular embodiment, the α7 nicotinic receptor agonist was choline, a more particular embodiment choline applied at a sub-maximal concentration of 100 μM.
# A control response to choline was calculated on each plate from the difference in peak fluorescence in wells receiving either choline or assay buffer alone. Compounds of the present invention were tested at a concentration range from 0.1 μM to 30 μM.
# The activity ranges are defined as follows; A denotes an activity range from 1.1 till 1.5, B denotes an activity range from 1.5 till 2.0, C denotes an activity range from 2.0 till 3.0, D denotes an activity range from 3.0 till 4.5 and E denotes an efficacy from at least 4.5.
# T1 sequence (P36544 23-502): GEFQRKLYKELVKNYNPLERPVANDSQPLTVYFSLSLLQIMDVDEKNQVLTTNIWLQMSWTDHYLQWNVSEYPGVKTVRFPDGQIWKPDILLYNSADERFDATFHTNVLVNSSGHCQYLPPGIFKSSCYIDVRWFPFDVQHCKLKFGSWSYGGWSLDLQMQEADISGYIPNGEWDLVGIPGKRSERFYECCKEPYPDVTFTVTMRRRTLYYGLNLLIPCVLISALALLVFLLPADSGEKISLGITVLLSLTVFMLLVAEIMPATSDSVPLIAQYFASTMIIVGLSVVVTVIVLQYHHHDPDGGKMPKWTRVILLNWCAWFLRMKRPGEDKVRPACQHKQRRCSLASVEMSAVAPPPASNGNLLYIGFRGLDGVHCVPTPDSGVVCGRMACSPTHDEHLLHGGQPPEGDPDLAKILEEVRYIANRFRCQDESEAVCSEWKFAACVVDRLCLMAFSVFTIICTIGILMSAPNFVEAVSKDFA
row,SMILES,Activity Range
1,CNC(=O)c1sc(Nc2cc(Cl)c(OC)cc2OC)nc1-c1ccncc1 [Compound 105],E (E denotes an efficacy from at least 4.5)
2,"N#CCc1sc(Nc2cccc(C(F)(F)F)c2)nc1-c1ccc(Cl)cc1Cl [Compound 23, [4-(2,4-Dichloro-phenyl)-2-(3-trifluoromethyl-phenylamino)-thiazol-5-yl]-acetonitrile]",D (D denotes an activity range from 3.0 till 4.5)
3,FC(F)(F)c1cccc(Nc2nc(-c3ccoc3)cs2)c1 [Compound 74],B (B denotes an activity range from 1.5 till 2.0)
4,Fc1ccc(Nc2nc(-c3cccnc3)c(F)s2)cc1C(F)(F)F [Compound 81],C (C denotes an activity range from 2.0 till 3.0)
5,"OCc1sc(Nc2cccc(C(F)(F)F)c2)nc1-c1ccc(Cl)cc1Cl [Compound 31, [4-(2,4-Dichloro-phenyl)-2-(3-trifluoromethyl-phenylamino)-thiazol-5-yl]-methanol]",B (B denotes an activity range from 1.5 till 2.0)
6,"CCOC(=O)c1sc(Nc2cc(Cl)ccc2Cl)nc1-c1ccccc1 [Compound 174, 5-Thiazolecarboxylic acid, 2-[(2,5-dichlorophenyl)amino]-4-phenyl-, ethyl ester]",E (E denotes an efficacy from at least 4.5)
7,"Cc1ccc(Nc2nc(-c3ccccc3)c(C(=O)Nc3cccnc3)s2)c(C)c1 [Compound 170, 5-Thiazolecarboxamide, 2-[(2,4-dimethylphenyl)amino]-4-phenyl-N-3-pyridinyl-]",E (E denotes an efficacy from at least 4.5)
8,Fc1ccc(Nc2nc(-c3cnc4ccccn34)cs2)cc1C(F)(F)F [Compound 9],C (C denotes an activity range from 2.0 till 3.0)
9,CCCc1nc(Nc2cc(Cl)ccc2Cl)sc1C(=O)OCC [Compound 156],E (E denotes an efficacy from at least 4.5)
10,c1cn2c(-c3csc(Nc4ccc5c(c4)CCO5)n3)cnc2s1 [Compound 60],B (B denotes an activity range from 1.5 till 2.0)
11,COCc1nc(Nc2cc(Cl)ccc2Cl)sc1C(=O)OC [Compound 140],E (E denotes an efficacy from at least 4.5)
12,CCOC(=O)c1sc(Nc2ccc(OC)cc2)nc1C [Compound 144],E (E denotes an efficacy from at least 4.5)
13,CCCc1nc(Nc2cccc(C(F)(F)F)c2)sc1CO [Compound 117],E (E denotes an efficacy from at least 4.5)
14,COc1cc(OC)c(Nc2nc(-c3ccc(F)c(F)c3)c(CC(=O)N3CCCC3)s2)cc1Cl [Compound 132],E (E denotes an efficacy from at least 4.5)
15,Cc1ccc(Nc2nc(-c3cncc(Br)c3)c(CO)s2)cn1 [Compound 125],E (E denotes an efficacy from at least 4.5)
16,COc1ccc(-c2csc(Nc3ccccc3OC)n2)c(OC)c1 [Compound 38],D (D denotes an activity range from 3.0 till 4.5)
17,COc1ccc(Nc2nc(-c3cnc4ccccn34)cs2)cc1 [Compound 70],D (D denotes an activity range from 3.0 till 4.5)
18,"COc1cc(OC)c(Nc2nc(-c3ccc4c(c3)OCCO4)c(CO)s2)cc1Cl [int. 19, 2-[(5-chloro-2,4-dimethoxyphenyl)amino]-4-(2,3-dihydro-1,4-benzodioxin-6-yl)-5-thiazolemethanol]",E (E denotes an efficacy from at least 4.5)
19,CNC(=O)CCc1sc(Nc2ccc(OC)cc2)nc1-c1ccnc(Cl)c1 [Compound 111],E (E denotes an efficacy from at least 4.5)
20,Fc1sc(Nc2cccc(C(F)(F)F)c2)nc1-c1cnc2ccccn12 [Compound 80],C (C denotes an activity range from 2.0 till 3.0)
21,Fc1cccc(-c2nc(Nc3cccc(C(F)(F)F)c3)sc2Br)c1 [Compound 6],C (C denotes an activity range from 2.0 till 3.0)
22,COc1ccc(OC)c(-c2csc(Nc3cc(F)ccc3C)n2)c1 [Compound 33],D (D denotes an activity range from 3.0 till 4.5)

row,SMILES,Activity Range
1,Cc1sc(Nc2ccc(C(F)(F)F)cc2)nc1-c1cnc2ccccn12 [Compound 85],C (C denotes an activity range from 2.0 till 3.0)
2,"NC(=O)Cc1sc(Nc2cccc(C(F)(F)F)c2)nc1-c1ccc(Cl)cc1Cl [Compound 18, 2-[4-(2,4-Dichloro-phenyl)-2-(3-trifluoromethyl-phenylamino)-thiazol-5-yl]-acetamide]",B (B denotes an activity range from 1.5 till 2.0)
3,N#Cc1ccc(Nc2nc(-c3cnc4ccccn34)cs2)cc1 [Compound 69],D (D denotes an activity range from 3.0 till 4.5)
4,"CNC(=O)c1sc(Nc2cc(Cl)c(OC)cc2OC)nc1-c1ccc(F)c(F)c1 [Compound 107, 2-[(5-chloro-2,4-dimethoxyphenyl)amino]-4-(3,4-difluorophenyl)-N-methyl-5-thiazolecarboxamide]",E (E denotes an efficacy from at least 4.5)
5,Cc1sc(Nc2ccc(Cl)nc2)nc1-c1cccnc1 [Compound 88],C (C denotes an activity range from 2.0 till 3.0)
6,CCOC(=O)c1sc(Nc2ccc(OC)cc2)nc1C(F)(F)F [Compound 154],E (E denotes an efficacy from at least 4.5)
7,Fc1ccc(Nc2nc(-c3cnc4sccn34)cs2)cc1C(F)(F)F [Compound 44],C (C denotes an activity range from 2.0 till 3.0)
8,COc1ccc(Nc2nc(-c3cnc4ccccn34)cs2)c(OC)c1 [Compound 50],D (D denotes an activity range from 3.0 till 4.5)
9,CCOC(=O)c1sc(Nc2cccc(C(F)(F)F)c2)nc1C [Compound 143],E (E denotes an efficacy from at least 4.5)
10,Brc1ccc(Nc2nc(-c3cnc4ccccn34)cs2)cc1 [Compound 58],C (C denotes an activity range from 2.0 till 3.0)
11,CCCc1nc(Nc2ccc(OC)cc2)sc1C(=O)OCC [Compound 102],E (E denotes an efficacy from at least 4.5)
12,CC(=O)NCc1sc(Nc2ccc(F)c(C(F)(F)F)c2)nc1-c1cccnc1 [Compound 32],C (C denotes an activity range from 2.0 till 3.0)
13,Cc1ccc(Nc2nc(-c3cccnc3)cs2)cc1 [Compound 77],C (C denotes an activity range from 2.0 till 3.0)
14,OCc1sc(Nc2ccc(F)c(C(F)(F)F)c2)nc1-c1cccnc1 [Compound 91],C (C denotes an activity range from 2.0 till 3.0)
15,Cc1cncc(-c2csc(Nc3cccc(Cl)c3Cl)n2)c1 [Compound 67],C (C denotes an activity range from 2.0 till 3.0)
16,Cc1cncc(-c2nc(Nc3cccc(Cl)c3Cl)sc2CO)c1 [Compound 128],E (E denotes an efficacy from at least 4.5)
17,Cc1cc(Nc2nc(-c3cccnc3)c(F)s2)ccc1F [Compound 83],C (C denotes an activity range from 2.0 till 3.0)
18,Cc1cccc(Nc2nc(-c3cccnc3)c(Cl)s2)c1 [Compound 94],D (D denotes an activity range from 3.0 till 4.5)
19,COC(=O)c1sc(Nc2cccc(C(F)(F)F)c2)nc1C(C)C [Compound 148],E (E denotes an efficacy from at least 4.5)
20,CNC(=O)Cc1sc(Nc2cccc(C(F)(F)F)c2)nc1-c1ccccc1 [Compound 131],E (E denotes an efficacy from at least 4.5)
21,COc1cc(OC)c(Nc2nc(-c3ccc4c(c3)OCCO4)c(CC#N)s2)cc1Cl [int. 20],E (E denotes an efficacy from at least 4.5)
